# Test results published in US6855843B2, “Inhibitors of α4 mediated cell adhesion” (Tanabe Seiyaku Co., Ltd., priority 1998, dated 2005).
# Biological target: T1, α4β7 (adhesion of RPMI cells to CS-1) (Homo sapiens, UniProt P13612+P26010)
# T1 construct: endogenous in cells
# T1 sequence (P13612 34-1032): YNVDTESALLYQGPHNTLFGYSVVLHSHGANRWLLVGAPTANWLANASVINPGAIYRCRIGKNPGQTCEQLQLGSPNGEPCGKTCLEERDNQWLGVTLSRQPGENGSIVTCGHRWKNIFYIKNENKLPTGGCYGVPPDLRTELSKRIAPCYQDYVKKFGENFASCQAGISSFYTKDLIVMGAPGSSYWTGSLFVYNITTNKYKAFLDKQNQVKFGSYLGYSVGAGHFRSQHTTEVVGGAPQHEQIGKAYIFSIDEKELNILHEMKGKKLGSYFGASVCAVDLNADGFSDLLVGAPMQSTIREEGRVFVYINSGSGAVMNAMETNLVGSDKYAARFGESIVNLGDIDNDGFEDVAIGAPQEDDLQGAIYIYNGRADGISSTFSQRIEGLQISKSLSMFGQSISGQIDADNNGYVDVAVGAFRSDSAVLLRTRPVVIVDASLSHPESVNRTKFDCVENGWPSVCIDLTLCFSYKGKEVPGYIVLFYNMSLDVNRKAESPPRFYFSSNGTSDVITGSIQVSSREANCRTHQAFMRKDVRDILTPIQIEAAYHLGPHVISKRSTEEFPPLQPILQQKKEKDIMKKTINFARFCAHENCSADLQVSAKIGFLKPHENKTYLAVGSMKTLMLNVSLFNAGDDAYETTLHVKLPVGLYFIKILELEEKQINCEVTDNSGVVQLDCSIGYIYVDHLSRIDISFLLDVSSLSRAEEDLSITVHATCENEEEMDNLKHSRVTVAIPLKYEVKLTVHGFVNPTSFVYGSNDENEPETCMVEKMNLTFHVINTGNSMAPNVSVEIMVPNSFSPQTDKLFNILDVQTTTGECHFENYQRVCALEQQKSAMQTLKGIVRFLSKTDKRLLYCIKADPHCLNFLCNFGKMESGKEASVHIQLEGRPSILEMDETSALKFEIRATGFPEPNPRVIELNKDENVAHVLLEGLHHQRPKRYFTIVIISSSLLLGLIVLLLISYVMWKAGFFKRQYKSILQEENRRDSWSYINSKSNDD
# T1 sequence (P26010 20-798): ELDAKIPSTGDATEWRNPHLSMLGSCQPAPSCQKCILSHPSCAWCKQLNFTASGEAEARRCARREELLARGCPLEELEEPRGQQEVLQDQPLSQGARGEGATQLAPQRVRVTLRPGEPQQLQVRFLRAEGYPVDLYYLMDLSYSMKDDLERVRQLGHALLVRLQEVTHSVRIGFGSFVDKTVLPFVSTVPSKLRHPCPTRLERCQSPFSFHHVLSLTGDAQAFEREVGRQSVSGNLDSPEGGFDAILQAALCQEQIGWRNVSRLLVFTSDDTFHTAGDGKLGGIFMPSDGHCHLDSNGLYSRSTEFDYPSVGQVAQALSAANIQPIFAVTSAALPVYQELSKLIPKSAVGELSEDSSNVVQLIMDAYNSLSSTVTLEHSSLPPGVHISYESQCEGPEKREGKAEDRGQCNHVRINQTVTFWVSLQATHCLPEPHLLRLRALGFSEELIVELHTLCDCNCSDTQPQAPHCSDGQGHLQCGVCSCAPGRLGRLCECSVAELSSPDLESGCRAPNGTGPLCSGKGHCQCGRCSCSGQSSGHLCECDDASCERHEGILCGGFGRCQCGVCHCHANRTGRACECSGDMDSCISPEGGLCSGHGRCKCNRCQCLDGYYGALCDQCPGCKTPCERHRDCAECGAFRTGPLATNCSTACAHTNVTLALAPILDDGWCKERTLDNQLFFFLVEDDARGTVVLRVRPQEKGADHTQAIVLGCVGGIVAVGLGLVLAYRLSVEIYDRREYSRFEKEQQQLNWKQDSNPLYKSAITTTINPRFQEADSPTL
# Assay: RPMI-CS-1 cell adhesion assay
# Type: cell-based
# Details: adhesion of RPMI B-cell line (expresses α4β7) to CS-1 peptide coated microwells; read-out: RPMI-CS-1 IC50 value range
row,SMILES,IC50 [µM]
1,O=C(N[C@@H](Cc1ccc(-c2ccccc2)cc1)C(=O)O)c1ccc(F)cc1Cl [Example 109],> 5
2,O=C(N[C@@H](Cc1ccc(-c2ccccc2)cc1)C(=O)O)c1ccccc1[N+](=O)[O-] [Example 110],> 5
3,O=C(N[C@@H](Cc1ccc(-c2ccccc2)cc1)C(=O)O)c1c(Cl)cccc1Cl [Example 111],1 to 5
4,Cc1ccccc1-c1ccc(C[C@H](NC(=O)c2c(Cl)cccc2Cl)C(=O)O)cc1 [Example 112],0.3 to 1
5,COC(=O)[C@H](Cc1ccc(-c2ccccc2CNCc2ccccc2)cc1)NC(=O)c1c(Cl)cccc1Cl [Example 114],0.3 to 1
6,COC(=O)[C@H](Cc1ccc(-c2ccccc2CNc2ccccn2)cc1)NC(=O)c1c(Cl)cccc1Cl [Example 115],1 to 5
7,COC(=O)[C@H](Cc1ccc(-c2ccccc2CNc2cccnc2)cc1)NC(=O)c1c(Cl)cccc1Cl [Example 116],1 to 5
8,Cc1ccc(-c2ccc(C[C@H](NC(=O)c3c(Cl)cccc3Cl)C(=O)O)cc2)cc1 [Example 117],1 to 5
9,COc1ccc(-c2ccc(C[C@H](NC(=O)c3c(Cl)cccc3Cl)C(=O)O)cc2)cc1 [Example 118],1 to 5
10,COc1cccc(-c2ccc(C[C@H](NC(=O)c3c(Cl)cccc3Cl)C(=O)O)cc2)c1 [Example 119],> 5
11,CCOc1cccc(-c2ccc(C[C@H](NC(=O)c3c(Cl)cccc3Cl)C(=O)O)cc2)c1 [Example 120],> 5
12,Nc1cccc(-c2ccc(C[C@H](NC(=O)c3c(Cl)cccc3Cl)C(=O)O)cc2)c1 [Example 122],1 to 5
13,CS(=O)(=O)Nc1cccc(-c2ccc(C[C@H](NC(=O)c3c(Cl)cccc3Cl)C(=O)O)cc2)c1 [Example 123],1 to 5
14,CC(=O)Nc1cccc(-c2ccc(C[C@H](NC(=O)c3c(Cl)cccc3Cl)C(=O)O)cc2)c1 [Example 124],1 to 5
15,COC(=O)Nc1cccc(-c2ccc(C[C@H](NC(=O)c3c(Cl)cccc3Cl)C(=O)O)cc2)c1 [Example 125],1 to 5
16,CCCCCC(=O)Nc1cccc(-c2ccc(C[C@H](NC(=O)c3c(Cl)cccc3Cl)C(=O)O)cc2)c1 [Example 126],1 to 5
17,COC(=O)[C@H](Cc1ccc(-c2cccnc2)cc1)NC(=O)c1c(Cl)cccc1Cl [Example 127],> 5
18,O=C(N[C@@H](Cc1ccc(-c2ccsc2)cc1)C(=O)O)c1c(Cl)cccc1Cl [Example 128],0.3 to 1
19,O=C(N[C@@H](Cc1ccc(-c2cccnc2)cc1)C(=O)O)c1c(Cl)cccc1Cl [Example 129],1 to 5
20,O=C(N[C@@H](Cc1ccc(-c2cc3ccccc3o2)cc1)C(=O)O)c1c(Cl)cccc1Cl [Example 130],> 5
21,COc1cccc(OC)c1-c1ccc(C[C@H](NC(=O)c2c(Cl)cccc2Cl)C(=O)O)cc1C(C)O (stereo partly shown) [Example 131],< 0.3
22,CCN(CC)Cc1cc(OC)c(-c2ccc(C[C@H](NC(=O)c3c(Cl)cccc3Cl)C(=O)O)cc2)c(OC)c1 [Example 132],< 0.3
23,COc1cc(CN2CCOCC2)cc(OC)c1-c1ccc(C[C@H](NC(=O)c2c(Cl)cccc2Cl)C(=O)O)cc1 [Example 133],< 0.3
24,COc1cc(CN2CCSCC2)cc(OC)c1-c1ccc(C[C@H](NC(=O)c2c(Cl)cccc2Cl)C(=O)O)cc1 [Example 134],< 0.3
25,"O=C(N[C@@H](Cc1ccc(-c2c(F)cccc2F)cc1)C(=O)O)c1c(Cl)cccc1Cl [Example 135, N-(2,6-Dichlorobenzoyl)-4-(2,6-difluorophenyl)-L-phenylalanine]",< 0.3
26,"COc1ccccc1-c1ccc(C[C@H](NC(=O)c2ccc(C(=O)OC(C)(C)C)cc2Cl)C(=O)O)cc1 [Example 176, N-[2-Chloro-4-(tert-butoxycarbonyl)benzoyl]-4-(2-methoxyphenyl)-L-phenylalanine]",0.3 to 1

# Next, values leading:
row,IC50 [µM],SMILES
1,0.3 to 1,COc1sccc1-c1ccc(C[C@H](NC(=O)c2c(Cl)cccc2Cl)C(=O)O)cc1 [Example 136]
2,0.3 to 1,O=C(N[C@@H](Cc1ccc(-c2ccccn2)cc1)C(=O)O)c1c(Cl)cccc1Cl [Example 137]
3,< 0.3,N#Cc1ccccc1-c1ccc(C[C@H](NC(=O)c2c(Cl)cccc2Cl)C(=O)O)cc1 [Example 138]
4,< 0.3,COc1cc(F)c(-c2ccc(C[C@H](NC(=O)c3c(Cl)cccc3Cl)C(=O)O)cc2)c(OC)c1 [Example 139]
5,0.3 to 1,O=C(N[C@@H](Cc1ccc(-c2c(Cl)cccc2Cl)cc1)C(=O)O)c1c(Cl)cccc1Cl [Example 141]
6,< 0.3,COc1cc(C#N)c(-c2ccc(C[C@H](NC(=O)c3c(Cl)cccc3Cl)C(=O)O)cc2)c(OC)c1 [Example 142]
7,< 0.3,CSc1ccccc1-c1ccc(C[C@H](NC(=O)c2c(Cl)cccc2Cl)C(=O)O)cc1 [Example 143]
8,< 0.3,COc1ncnc(OC)c1-c1ccc(C[C@H](NC(=O)c2c(Cl)cccc2Cl)C(=O)O)cc1 [Example 144]
9,< 0.3,"CS(=O)(=O)c1ccccc1-c1ccc(C[C@H](NC(=O)c2c(Cl)cccc2Cl)C(=O)O)cc1 [Example 152B, N-(2,6-Dichlorobenzoyl)-4-[2-(methylsulfonyl)phenyl]-L-phenyl-alanine]"
10,< 0.3,"COc1c(F)cc(F)c(OC)c1-c1ccc(C[C@H](NC(=O)c2c(Cl)cccc2Cl)C(=O)O)cc1 [Example 153B, N-(2,6-dichlorobenzoyl)-4-(2,6-dimethoxy-3,5-difluorophenyl)-L-phenylalanine]"
11,< 0.3,"COc1c(F)cc2c(c1-c1ccc(C[C@H](NC(=O)c3c(Cl)cccc3Cl)C(=O)O)cc1)OCO2 [Example 154, N-(2,6-Dichlorobenzoyl)-4-(2,3-methylenedioxy-5-fluoro-6-methoxyphenyl)-L-phenylalanine]"
12,< 0.3,"COc1cc(N(C)C)cc(OC)c1-c1ccc(C[C@H](NC(=O)c2c(Cl)cccc2Cl)C(=O)O)cc1 [Example 164, N-(2,6-Dichlorobenzoyl)-4-[2,6-dimethoxy-4-(dimethylamino)phenyl]-L-phenylalanine]"
13,< 0.3,"COc1ccccc1-c1ccc(C[C@H](NC(=O)c2ccc(C(=O)O)cc2Cl)C(=O)O)cc1 [Example 177, N-[2-Chloro-4-carboxybenzoyl]-4-(2-methoxyphenyl)-L-phenylalanine]"
14,< 0.3,"COc1ccccc1-c1ccc(C[C@H](NC(=O)c2ccc(C(N)=O)cc2Cl)C(=O)O)cc1 [Example 178, N-[2-Chloro-4-carbamoylbenzoyl]-4-(2-methoxyphenyl)-L-phenylalanine]"
15,< 0.3,"COc1ccccc1-c1ccc(C[C@H](NC(=O)c2ccc(C(=O)NS(C)(=O)=O)cc2Cl)C(=O)O)cc1 [Example 179, N-[2-Chloro-4-[N-(methanesulfonyl)carbamoyl]-benzoyl]-4-(2-methoxyphenyl)-L-phenylalanine]"
16,< 0.3,"COc1ccccc1-c1ccc(C[C@H](NC(=O)c2cc(NS(=O)(=O)C(F)(F)F)ccc2Cl)C(=O)O)cc1 [Example 180, N-[2-Chloro-5-[(trifluoromethanesulfonyl)amino]-benzoyl]-4-(2-methoxyphenyl)-L-phenylalanine]"
17,0.3 to 1,"COc1ccccc1-c1ccc(C[C@H](NC(=O)c2cccc(NS(=O)(=O)C(F)(F)F)c2Cl)C(=O)O)cc1 [Example 181, N-[2-Chloro-3-[(trifluoromethanesulfonyl)amino]-benzoyl]-4-(2-methoxyphenyl)-L-phenylalanine]"
